Experimental data: US8937067B2, “Activators of human pyruvate kinase” (The United States of America, as represented by the …, priority 2008, dated 2015)

Biological target: hPK-M2 (Homo sapiens, UniProt P14618)
Assay: Luminescent pyruvate kinase-luciferase coupled assay (KinaseGlo)
Assay type: biochemical
Conditions: for activation at 57 µM / hPK, M2 Max. Res.: KinaseGlo, % activation at 57 μM of compound; for activation at 57 µM: read-out: hPK, M2 Max. Res.; for AC50: luminescent pyruvate kinase-luciferase coupled assay (KinaseGlo), tables, read-out: hPK, M2 AC50
Procedure: Luminescent Pyruvate Kinase-Luciferase Coupled Assay.
Production of a luminescent signal based on the generation of ATP by pyruvate kinase was determined by using the ATP-dependent enzyme firefly luciferase. Three μL of substrate mix (at r.t.) in assay buffer (50 mM imidazole pH 7.2, 50 mM KCl, 7 mM MgCl2, 0.01% tween 20, 0.05% BSA) was dispensed into Kalypsys white solid bottom 1,536 well microtiter plates using a bottle-valve solenoid-based dispenser (Kalypsys). The final concentrations of substrates in the assay were 0.1 mM ADP and 0.5 mM PEP. […] Microtiter plates were incubated at r.t. for 1 hour and 2 uL of luciferase detection mix (Kinase-Glo, Promega at 4° C. protected from light) was added and luminescence was read with a ViewLux (Perkin Elmer) using a 5 second exposure/plate. Data was normalized for AC50 values to control columns containing uninhibited enzyme (n), and AC100 inhibition (i) according the following equation: Activation (%)=[(c−n)/(n−i)]*100 where c=compound, n=DMSO neutral, i=no enzyme control. […] Monitoring of activation was accomplished using enzyme at 3× the final concentration.

hPK-M2, sequence (P14618 whole entry): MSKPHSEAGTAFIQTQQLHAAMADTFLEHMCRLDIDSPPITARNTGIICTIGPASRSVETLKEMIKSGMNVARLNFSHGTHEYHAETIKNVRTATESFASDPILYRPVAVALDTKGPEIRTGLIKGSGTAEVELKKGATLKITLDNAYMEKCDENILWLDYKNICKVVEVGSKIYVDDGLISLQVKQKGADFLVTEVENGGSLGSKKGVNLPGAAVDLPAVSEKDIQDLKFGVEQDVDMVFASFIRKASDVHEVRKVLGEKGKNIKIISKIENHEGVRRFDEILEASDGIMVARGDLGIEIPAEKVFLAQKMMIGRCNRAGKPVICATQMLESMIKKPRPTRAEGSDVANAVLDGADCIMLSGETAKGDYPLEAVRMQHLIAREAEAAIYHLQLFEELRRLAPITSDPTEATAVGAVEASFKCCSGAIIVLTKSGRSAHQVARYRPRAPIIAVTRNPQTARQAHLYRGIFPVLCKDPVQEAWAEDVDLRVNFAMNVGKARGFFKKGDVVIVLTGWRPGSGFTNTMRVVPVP

SMILES | activation at 57 µM | AC50 | hPK, M2 Max. Res. | PKM2 activation, result in words
O=S(=O)(NC1CCN(S(=O)(=O)c2c(F)cccc2F)C1)c1ccc2c(c1)OCCO2 (stereo not shown) [Compound 41, N-(1-(2,6-difluorophenylsulfonyl)pyrrolidin-3-yl)-2,3-dihydrobenzo[b][1,4]dioxine-6-sulfonamide] | 82.4 ± 18% | > 15000 nM |  | 
O=S(=O)(NC1CCN(S(=O)(=O)c2ccc3c(c2)OCCO3)C1)c1c(F)cccc1F (stereo not shown) [Compound 42, N-(1-(2,3-dihydrobenzo[b][1,4]dioxin-6-ylsulfonyl)pyrrolidin-3-yl)-2,6-difluorobenzenesulfonamide] | 83.7 ± 24.2% | > 10000 nM |  | 
O=S(=O)(NCC1CN(S(=O)(=O)c2c(F)cccc2F)C1)c1ccc2c(c1)OCCO2 [Compound 43] | 93.3 ± 9% | 4470 nM |  | 
O=S(=O)(NCC1CN(S(=O)(=O)c2ccc3c(c2)OCCO3)C1)c1c(F)cccc1F [Compound 44, N-((1-(2,3-dihydrobenzo[b][1,4]dioxin-6-ylsulfonyl)azetidin-3-yl)methyl)-2,6-difluorobenzenesulfonamide] | 108 ± 5.3% | 3050 ± 200 nM |  | 
C[C@H]1CN(S(=O)(=O)c2c(F)cccc2F)CCN1S(=O)(=O)c1ccc2c(c1)OCCO2 [Compound 45, (S)-4-(2,6-difluorophenylsulfonyl)-1-(2,3-dihydrobenzo[b][1,4]dioxin-6-ylsulfonyl)-2-methylpiperazine] | 109 ± 9.4% | 4340 ± 740 nM |  | 
C[C@@H]1CN(S(=O)(=O)c2c(F)cccc2F)CCN1S(=O)(=O)c1ccc2c(c1)OCCO2 [Compound 46, (R)-4-(2,6-difluorophenylsulfonyl)-1-(2,3-dihydrobenzo[b][1,4]dioxin-6-ylsulfonyl)-2-methylpiperazine] | 98.8 ± 2.6% | 3100 ± 1170 nM |  | 
C[C@@H]1CN(S(=O)(=O)c2ccc3c(c2)OCCO3)CCN1S(=O)(=O)c1c(F)cccc1F [Compound 47, (R)-1-(2,6-difluorophenylsulfonyl)-4-(2,3-dihydrobenzo[b][1,4]dioxin-6-ylsulfonyl)-2-methylpiperazine] | 108 ± 9.9% | 9180 ± 2560 nM |  | 
C[C@H]1CN(S(=O)(=O)c2ccc3c(c2)OCCO3)CCN1S(=O)(=O)c1c(F)cccc1F [Compound 48, (S)-1-(2,6-difluorophenylsulfonyl)-4-(2,3-dihydrobenzo[b][1,4]dioxin-6-ylsulfonyl)-2-methylpiperazine] | 108 ± 8.4% | 2960 ± 200 nM |  | 
Cc1cc2c(s1)c1cnn(Cc3ccccc3F)c(=O)c1n2C [Compound 66, 2,4-Methyl-6-[(2-fluorophenyl)methyl]-4H-thieno[3,2-b]pyrrole[3,2-d]pyridazinone] | 122 ± 6.1% | 63 ± 20 nM |  | 
CCc1cc2c(s1)c1cnn(Cc3ccccc3F)c(=O)c1n2C [Compound 68, 2-Ethyl-4-methyl-6-[(2-fluorophenyl)methyl]-4H-thieno[3,2-b]pyrrole[3,2-d]pyridazinone] | 105 ± 5.8% | 100 ± 30 nM |  | 
Cn1c2ccsc2c2cnn(Cc3ccccc3F)c(=O)c21 [Compound 70, 4-Methyl-6-[(2-fluorophenyl)methyl]-4H-thieno[3,2-b]pyrrole[3,2-d]pyridazinone] | 93.2 ± 6.6% | 605 ± 180 nM |  | 
COc1cc2c(s1)c1cnn(Cc3ccccc3F)c(=O)c1n2C [Compound 71, 2-Methoxy-4-methyl-6-[(2-fluorophenyl)methyl]-4H-thieno[3,2-b]pyrrole[3,2-d]pyridazinone] |  | 86 ± 40 nM |  | 
CSc1cc2c(s1)c1cnn(Cc3ccccc3F)c(=O)c1n2C [Compound 72, 2-Methylthio-4-methyl-6-[(2-fluorophenyl)methyl]-4H-thieno[3,2-b]pyrrole[3,2-d]pyridazinone] | 96.3 ± 3.8% | 24 ± 10 nM |  | 
Cn1c2cc([N+](=O)[O-])sc2c2cnn(Cc3ccccc3F)c(=O)c21 [Compound 80, 2-Nitro-4-methyl-6-[(2-fluorophenyl)methyl]-4H-thieno[3,2-b]pyrrole[3,2-d]pyridazinone] |  | 18 ± 10 nM |  | 
CC(=O)Nc1cc2c(s1)c1cnn(Cc3ccccc3F)c(=O)c1n2C [Compound 81, 2-Acetylamido-4-methyl-6-[(2-fluorophenyl)methyl]-4H-thieno[3,2-b]pyrrole[3,2-d]-pyridazinone] | 58.6 ± 23.5% |  |  | 
Cn1c2cc(C#N)sc2c2cnn(Cc3ccccc3F)c(=O)c21 [Compound 82, 2-Cyano-4-methyl-6-[(2-fluorophenyl)methyl]-4H-thieno[3,2-b]pyrrole[3,2-d]pyridazinone] | 84.1 ± 5.5% | 47 ± 20 nM |  | 
COC(=O)c1cc2c(s1)c1cnn(Cc3ccccc3F)c(=O)c1n2C [Compound 83, Methyl 4-methyl-6-[(2-fluorophenyl)methyl]-4,1-thieno[3,2-b]pyrrole[3,2-d]pyridazinone-2-carboxylate] | 70.4 ± 12.9% | 84 ± 30 nM |  | 
Cn1c2cc(B(O)O)sc2c2cnn(Cc3ccccc3F)c(=O)c21 [Compound 86, 4-Methyl-6-[(2-fluorophenyl)methyl]-4,1-thieno[3,2-b]pyrrole[3,2-d]pyridazinone, 2-ylboronic acid] | 101 ± 1.4% |  |  | 
CC(O)c1cc2c(s1)c1cnn(Cc3ccccc3F)c(=O)c1n2C (stereo not shown) [Compound 88] |  | 136 ± 10 nM | 119.7 ± 2.6% | 
Cc1cc2[nH]c3c(=O)n(Cc4ccccc4F)ncc3c2s1 [Compound 89, 2-Methyl-6-[(2-fluorophenyl)methyl]-4H-thieno[3,2-b]pyrrole[3,2-d]pyridazinone] | 32.9 ± 3.8% |  |  | 
CCn1c2cc(C)sc2c2cnn(Cc3ccccc3F)c(=O)c21 [Compound 90, 2-Methyl-4-ethyl-6-[(2-fluorophenyl)methyl]-4H-thieno[3,2-b]pyrrole[3,2-d]pyridazinone] |  | 5900 ± 1700 nM | 95.6 ± 6.3% | 
CCCCCn1ncc2c3sc(C)cc3n(C)c2c1=O [Compound 102, 2,4-Methyl-6-pentyl-4H-thieno[3,2-b]pyrrole[3,2-d]pyridazinone] |  |  |  | marked loss of potency
Cc1cc2c(s1)c1cnn(Cc3ccccc3)c(=O)c1n2C [Compound 103, 2,4-Methyl-6-phenylmethyl-4H-thieno[3,2-b]pyrrole[3,2-d]pyridazinone] |  | 62 ± 20 nM |  | 
Cc1cc2c(s1)c1cnn(Cc3cccc(F)c3)c(=O)c1n2C [Compound 104] | 91.5 ± 8.4% | 225 ± 100 nM |  | 
Cc1cc2c(s1)c1cnn(Cc3ccc(F)cc3)c(=O)c1n2C [Compound 105, 2,4-Methyl-6-[(4-fluorophenyl)methyl]-4H-thieno[3,2-b]pyrrole[3,2-d]pyridazinone] | 102 ± 8.9% | 57 ± 20 nM |  | 
Cc1cc2c(s1)c1cnn(Cc3ccccc3Cl)c(=O)c1n2C [Compound 106, 2,4-Methyl-6-[(2-chlorophenyl)methyl]-4H-thieno[3,2-b]pyrrole[3,2-d]pyridazinone] | 95.6 ± 10% | 298 ± 140 nM |  | 
Cc1cc2c(s1)c1cnn(Cc3cccc(Cl)c3)c(=O)c1n2C [Compound 107, 2,4-Methyl-6-[(3-chlorophenyl)methyl]-4H-thieno[3,2-b]pyrrole[3,2-d]pyridazinone] | 99.1 ± 3.1% | 126 ± 10 nM |  | 
Cc1ccc(Cn2ncc3c4sc(C)cc4n(C)c3c2=O)cc1 [Compound 109, 2,4-Methyl-6-[(4-methylphenyl)methyl]-4H-thieno[3,2-b]pyrrole[3,2-d]pyridazinone] | 84.1 ± 5.5% | 356 ± 120 nM |  | 
